Reference: patent publication US20110280898A1, “INHBB EPITOPE PEPTIDES AND VACCINES CONTAINING THE SAME” (Oncotherapy Science, Inc., priority 2008, published 2011)
Entries after “also recorded” stand apart in the source; their conditions may differ.

system: peptide-pulsed T2 cells; assay: IFN-gamma ELISA assay on expanded CTL line; assay type: cell-based, human; settings: CTL line expanded from positive well #7, peptide-pulsed target vs target without peptide pulse
Source text: Monocyte-derived dendritic cells (DCs) were used as antigen-presenting cells (APCs) to induce cytotoxic T lymphocyte (CTL) responses against peptides presented on human leukocyte antigen (HLA). DCs were generated in vitro as described elsewhere (Nakahara S et al., Cancer Res 2003 Jul 15, 63(14): 4112-8). Specifically, peripheral blood mononuclear cells (PBMCs) isolated from a normal volunteer (HLA-A*0201 positive) by Ficoll-Plaque (Pharmacia) solution were separated by adherence to a plastic tissue culture dish (Becton Dickinson) so as to enrich them as the monocyte fraction. The monocyte-enriched population was cultured in the presence of 1000 U/ml of granulocyte-macrophage colony-stimulating factor (GM-CSF) (R&D System) and 1000 U/ml of interleukin (IL)-4 (R&D System) in AIM-V Medium (Invitrogen) containing 2% heat-inactivated autologous serum (AS). After 7 days of culture, the cytokine-induced DCs were pulsed with 20 mcg/ml of each of the synthesized peptides in the presence of 3 mcg/ml of beta2-microglobulin for 3 hr at 37 degrees C. in AIM-V Medium. The generated cells appeared to express DC-associated molecules, such as CD80, CD83, CD86 and HLA class II, on their cell surfaces (data not shown). […]

| Substance | IFN-gamma production / specific CTL activity of established CTL line |
| --- | --- |
| INHBB-A02-9-174: 9-mer HLA-A*0201 binding epitope peptide derived from INHBB (VQASLWLYL) | potent IFN-gamma production as compared with the control |

same assay, conditions: CTL line expanded from positive well #7, peptide-pulsed target vs target without peptide pulse, listed as SEQ ID NO: 2

| Substance | IFN-gamma production / specific CTL activity of established CTL line |
| --- | --- |
| INHBB-A02-9-174: 9-mer HLA-A*0201 binding epitope peptide derived from INHBB (VQASLWLYL) | higher specific CTL activity against the peptide-pulsed target as compared to the activity against target without peptide pulse |

system: peptide-pulsed T2 cells; assay: IFN-gamma ELISPOT assay on CTLs induced with INHBB-derived peptides; assay type: cell-based, human; settings: target cells pulsed with the peptide vs control not pulsed, after 3rd round of stimulation, day 21
Source text: Monocyte-derived dendritic cells (DCs) were used as antigen-presenting cells (APCs) to induce cytotoxic T lymphocyte (CTL) responses against peptides presented on human leukocyte antigen (HLA). DCs were generated in vitro as described elsewhere (Nakahara S et al., Cancer Res 2003 Jul 15, 63(14): 4112-8). Specifically, peripheral blood mononuclear cells (PBMCs) isolated from a normal volunteer (HLA-A*0201 positive) by Ficoll-Plaque (Pharmacia) solution were separated by adherence to a plastic tissue culture dish (Becton Dickinson) so as to enrich them as the monocyte fraction. The monocyte-enriched population was cultured in the presence of 1000 U/ml of granulocyte-macrophage colony-stimulating factor (GM-CSF) (R&D System) and 1000 U/ml of interleukin (IL)-4 (R&D System) in AIM-V Medium (Invitrogen) containing 2% heat-inactivated autologous serum (AS). After 7 days of culture, the cytokine-induced DCs were pulsed with 20 mcg/ml of each of the synthesized peptides in the presence of 3 mcg/ml of beta2-microglobulin for 3 hr at 37 degrees C. in AIM-V Medium. The generated cells appeared to express DC-associated molecules, such as CD80, CD83, CD86 and HLA class II, on their cell surfaces (data not shown). These peptide-pulsed DCs were then inactivated by Mitomycin C (MMC) (30 mcg/ml for 30 min) and mixed at a 1:20 ratio with autologous CD8+ T cells, obtained by positive selection with CD8 Positive Isolation Kit (Dynal). These cultures were set up in 48-well plates (Corning); each well contained 1.5×10^4 peptide-pulsed DCs, 3×10^5 CD8+ T cells and 10 ng/ml of IL-7 (R&D System) in 0.5 ml of AIM-V/2% AS medium. Three days later, these cultures were supplemented with IL-2 (CHIRON) to a final concentration of 20 IU/ml. On day 7 and 14, the T cells were further stimulated with the autologous peptide-pulsed DCs. The DCs were prepared each time by the same way described above. CTL was tested against peptide-pulsed T2 cells after the 3rd round of peptide stimulation on day 21 (Tanaka H et al., Br J Cancer 2001 Jan. 5, 84(1): 94-9; Umano Y et al., Br J Cancer 2001 Apr. 20, 84(8): 1052-7; Uchida N et al., Clin Cancer Res 2004 Dec. 15, 10(24): 8577-86; Suda T et al., Cancer Sci 2006 May, 97(5): 411-9; Watanabe T et al., Cancer Sci 2005 Aug, 96(8): 498-506).
Specifically, peptide-pulsed T2 (1×10^4/well) was prepared as stimulator cells. Cultured cells in 48 wells were used as responder cells. IFN-gamma ELISPOT assay and IFN-gamma ELISA assay were performed under manufacture procedure.

| Substance | IFN-gamma production of peptide-induced CTLs (specific CTL activity) |
| --- | --- |
| INHBB-A02-9-8: 9-mer HLA-A*0201 binding epitope peptide derived from INHBB (ALGAACLLL) | potent IFN-gamma production as compared to the control; also recorded: potent IFN-gamma production as compared with the control |
| INHBB-A02-9-139: 9-mer HLA-A*0201 binding epitope peptide derived from INHBB (RVSEIISFA) | potent IFN-gamma production as compared to the control; also recorded: potent IFN-gamma production as compared with the control |
| INHBB-A02-10-162: 10-mer HLA-A*0201 binding epitope peptide derived from INHBB (FISNEGNQNL) | potent IFN-gamma production as compared to the control; also recorded: potent IFN-gamma production as compared with the control |
| INHBB-A02-10-173: 10-mer HLA-A*0201 binding epitope peptide derived from INHBB (VVQASLWLYL) | potent IFN-gamma production as compared to the control; also recorded: potent IFN-gamma production as compared with the control |
| INHBB-A02-10-256: 10-mer HLA-A*0201 binding epitope peptide derived from INHBB (QELAVVPVFV) | potent IFN-gamma production as compared to the control; also recorded: potent IFN-gamma production as compared with the control |
| INHBB-A02-10-85: 10-mer HLA-A*0201 binding epitope peptide derived from INHBB (RLQMRGRPNI) | potent IFN-gamma production as compared to the control; also recorded: potent IFN-gamma production as compared with the control |
| INHBB-A02-9-257: 9-mer HLA-A*0201 binding epitope peptide derived from INHBB (ELAVVPVFV) | potent IFN-gamma production as compared to the control; also recorded: potent IFN-gamma production as compared with the control |
| INHBB-A02-9-213: 9-mer HLA-A*0201 binding epitope peptide derived from INHBB (NMVEKRVDL) | potent IFN-gamma production as compared to the control; also recorded: potent IFN-gamma production as compared with the control |
| INHBB-A02-10-237: 10-mer HLA-A*0201 binding epitope peptide derived from INHBB (ALFERGERRL) | potent IFN-gamma production as compared to the control; also recorded: potent IFN-gamma production as compared with the control |
| INHBB-A02-9-174: 9-mer HLA-A*0201 binding epitope peptide derived from INHBB (VQASLWLYL) | potent IFN-gamma production as compared to the control; also recorded: potent IFN-gamma production as compared with the control |
| INHBB-A02-9-313: 9-mer HLA-A*0201 binding epitope peptide derived from INHBB (RLIGWNDWI) | potent IFN-gamma production as compared to the control; also recorded: potent IFN-gamma production as compared with the control |
| INHBB-A02-10-179: 10-mer HLA-A*0201 binding epitope peptide derived from INHBB (WLYLKLLPYV) | potent IFN-gamma production as compared to the control; also recorded: potent IFN-gamma production as compared with the control |
| INHBB-A02-10-313: 10-mer HLA-A*0201 binding epitope peptide derived from INHBB (RLIGWNDWII) | potent IFN-gamma production as compared to the control; also recorded: potent IFN-gamma production as compared with the control |
| INHBB-A02-9-250: 9-mer HLA-A*0201 binding epitope peptide derived from INHBB (VQCDSCQEL) | potent IFN-gamma production as compared to the control; also recorded: potent IFN-gamma production as compared with the control |
